Data: PubChem BioAssay AID192 (DTP/NCI, 2004)
“And” between values parts separate entries of the source, which are not always exact repeats. Identical values can stand only once. Inconclusive results and toxic doses are left out.

Test system: BDF1 mice, B16 melanoma ip, median survival T/C
Assay: NCI In Vivo Anticancer Drug Screen. Data for tumor model B16 Melanoma (intraperitoneal) in B6D2F1 (BDF1) mice
Conditions: endpoint: median survival time, higher = longer survival
Procedure: The antitumor activity of compounds was measured in mice bearing transplantable tumors. Survival or tumor size were measured and the results are expressed as the measurement made in the treated group (T) divided by the measurement made in the vehicle treated control group (C). The tumor model used in this assay is B16 Melanoma (intraperitoneal) in B6D2F1 (BDF1) mice

[1] = dose: 1.0 mg/kg/injection, schedule: Q01DX009 (ip), vehicle: saline with Tween-80
[2] = dose: 2.0 mg/kg/injection, schedule: Q01DX009 (ip), vehicle: saline with Tween-80
[3] = dose: 2.0 mg/kg/injection, schedule: Q01DX009 (ip), vehicle: saline
[4] = dose: 4.0 mg/kg/injection, schedule: Q01DX009 (ip), vehicle: saline
[5] = dose: 6.25 mg/kg/injection, schedule: Q01DX009 (ip), vehicle: Klucel (hydroxypropylcellulose) (HPC)
[6] = dose: 12.5 mg/kg/injection, schedule: Q01DX009 (ip), vehicle: Klucel (hydroxypropylcellulose) (HPC)
[7] = dose: 25.0 mg/kg/injection, schedule: Q01DX009 (ip), vehicle: Klucel (hydroxypropylcellulose) (HPC)
[8] = dose: 100.0 mg/kg/injection, schedule: Q01DX009 (ip), vehicle: Klucel (hydroxypropylcellulose) (HPC)
[9] = dose: 200.0 mg/kg/injection, schedule: Q01DX009 (ip), vehicle: Klucel (hydroxypropylcellulose) (HPC)
[10] = dose: 50.0 mg/kg/injection, schedule: Q01DX009 (ip), vehicle: Klucel (hydroxypropylcellulose) (HPC)

Compound: N[C@@H](Cc1ccc(N(CCCl)CCCl)cc1)C(=O)O
- T/C (dose: 0.06 mg/kg/injection, schedule: Q01DX009 (ip), vehicle: saline): 97 % of control
- T/C (dose: 0.12 mg/kg/injection, schedule: Q01DX009 (ip), vehicle: saline): 102 % of control
- T/C (dose: 0.25 mg/kg/injection, schedule: Q01DX009 (ip), vehicle: saline): 104 % of control
- T/C (dose: 0.5 mg/kg/injection, schedule: Q01DX009 (ip), vehicle: carboxymethylcellulose (CMC)): 95 % of control
- T/C (dose: 0.5 mg/kg/injection, schedule: Q01DX009 (ip), vehicle: water): 123 % of control
- T/C (dose: 0.75 mg/kg/injection, schedule: Q01DX009 (ip), vehicle: Klucel (hydroxypropylcellulose) (HPC)): 151 % of control
- T/C (dose: 0.75 mg/kg/injection, schedule: Q01DX009 (ip), vehicle: saline): 157 % of control
- T/C (dose: 1.0 mg/kg/injection, schedule: Q01DX009 (ip), vehicle: carboxymethylcellulose (CMC)): 88 % of control
- T/C [1]: 180 % of control
- T/C (dose: 1.0 mg/kg/injection, schedule: Q01DX009 (ip), vehicle: water): 176 % of control
- T/C (dose: 1.2 mg/kg/injection, schedule: Q01DX009 (ip), vehicle: saline): 167 % of control
- T/C (dose: 1.25 mg/kg/injection, schedule: Q01DX001 (ip), vehicle: water): 123 % of control
- T/C (dose: 1.5 mg/kg/injection, schedule: Q01DX009 (ip), vehicle: Klucel (hydroxypropylcellulose) (HPC)): 188 % of control
- T/C (dose: 1.5 mg/kg/injection, schedule: Q01DX009 (ip), vehicle: carboxymethylcellulose (CMC)): 180 % of control
- T/C (dose: 1.5 mg/kg/injection, schedule: Q01DX009 (ip), vehicle: saline): 166 % of control and 197 % of control
- T/C (dose: 2.0 mg/kg/injection, schedule: Q01DX009 (ip), vehicle: carboxymethylcellulose (CMC)): 95 % of control
- T/C [2]: 254 % of control
- T/C (dose: 2.0 mg/kg/injection, schedule: Q01DX009 (ip), vehicle: water): 188 % of control
- T/C (dose: 2.5 mg/kg/injection, schedule: Q01DX001 (ip), vehicle: Klucel (hydroxypropylcellulose) (HPC)): 164 % of control
- T/C (dose: 3.0 mg/kg/injection, schedule: Q01DX009 (ip), vehicle: Klucel (hydroxypropylcellulose) (HPC)): 198 % of control
- T/C (dose: 3.0 mg/kg/injection, schedule: Q01DX009 (ip), vehicle: saline): 171 % of control and 262 % of control
- T/C (dose: 3.3 mg/kg/injection, schedule: Q01DX009 (ip), vehicle: saline): 218 % of control
- T/C (dose: 4.0 mg/kg/injection, schedule: Q01DX009 (ip), vehicle: carboxymethylcellulose (CMC)): 94 % of control
- T/C (dose: 4.0 mg/kg/injection, schedule: Q01DX009 (ip), vehicle: saline with Tween-80): 200 % of control
- T/C (dose: 4.0 mg/kg/injection, schedule: Q01DX009 (ip), vehicle: water): 161 % of control
- T/C (dose: 4.0 mg/kg/injection, schedule: Q04DX003 (ip), vehicle: saline): 194 % of control
- T/C (dose: 5.0 mg/kg/injection, schedule: Q01DX001 (ip), vehicle: Klucel (hydroxypropylcellulose) (HPC)): 222 % of control
- T/C (dose: 5.0 mg/kg/injection, schedule: Q01DX005 (ip), vehicle: saline): 156 % of control
- T/C (dose: 6.0 mg/kg/injection, schedule: Q01DX009 (ip), vehicle: carboxymethylcellulose (CMC)): 106 % of control and 117 % of control
- T/C (dose: 6.0 mg/kg/injection, schedule: Q01DX009 (ip), vehicle: saline): 118 % of control
- T/C (dose: 6.0 mg/kg/injection, schedule: Q04DX003 (ip), vehicle: Klucel (hydroxypropylcellulose) (HPC)): 179 % of control
- T/C (dose: 8.0 mg/kg/injection, schedule: Q04DX003 (ip), vehicle: saline): 231 % of control
- T/C (dose: 10.0 mg/kg/injection, schedule: Q01DX001 (ip), vehicle: Klucel (hydroxypropylcellulose) (HPC)): 242 % of control
- T/C (dose: 10.0 mg/kg/injection, schedule: Q01DX001 (ip), vehicle: water): 191 % of control
- T/C (dose: 10.0 mg/kg/injection, schedule: Q01DX005 (ip), vehicle: saline): 194 % of control
- T/C (dose: 12.0 mg/kg/injection, schedule: Q04DX003 (ip), vehicle: Klucel (hydroxypropylcellulose) (HPC)): 169 % of control
- T/C (dose: 16.0 mg/kg/injection, schedule: Q04DX003 (ip), vehicle: saline): 169 % of control

Compound: Cc1ccccc1N(CC1CO1)CC1CO1 (stereo unspecified)
- T/C (dose: 50.0 mg/kg/injection, schedule: Q01DX009 (ip), vehicle: saline with Tween-80): 152 % of control
- T/C (dose: 100.0 mg/kg/injection, schedule: Q01DX009 (ip), vehicle: saline with Tween-80): 180 % of control

Compound: OCCN1CCN(CC/C=C2\c3ccccc3COc3ccc(Cl)cc32)CC1
- T/C [3]: 105 % of control
- T/C [4]: 113 % of control

Compound: O=C(NC(=O)C(Cl)Cl)OC1c2cc(Cl)ccc2-c2c(Cl)cc(Cl)cc21 (stereo unspecified)
- T/C (dose: 3.0 mg/kg/injection, schedule: Q01DX009 (ip), vehicle: saline with Tween-80): 93 % of control
- T/C (dose: 6.0 mg/kg/injection, schedule: Q01DX009 (ip), vehicle: saline with Tween-80): 97 % of control
- T/C (dose: 12.0 mg/kg/injection, schedule: Q01DX009 (ip), vehicle: saline with Tween-80): 86 % of control

Compound: COC(=O)Nc1cn2cc(C(=O)c3cccs3)ccc2n1
- T/C (dose: 1.56 mg/kg/injection, schedule: Q01DX009 (ip), vehicle: Klucel (hydroxypropylcellulose) (HPC)): 93 % of control
- T/C (dose: 3.12 mg/kg/injection, schedule: Q01DX009 (ip), vehicle: Klucel (hydroxypropylcellulose) (HPC)): 98 % of control
- T/C [5]: 104 % of control
- T/C [6]: 113 % of control
- T/C [7]: 123 % of control

Compound: COc1cc2c(cc1O)N=C[C@@H]1CCC(O)N1C2=O (mixture of isomers)
- T/C (dose: 0.5 mg/kg/injection, schedule: Q01DX009 (ip), vehicle: saline): 99 % of control
- T/C (dose: 1.0 mg/kg/injection, schedule: Q01DX009 (ip), vehicle: saline): 99 % of control
- T/C [3]: 98 % of control
- T/C [4]: 101 % of control and 119 % of control

Compound: CCOc1ccccc1NC(=O)Nc1ccc(Cl)cc1
- T/C [8]: 110 % of control
- T/C [9]: 103 % of control
- T/C (dose: 400.0 mg/kg/injection, schedule: Q01DX009 (ip), vehicle: Klucel (hydroxypropylcellulose) (HPC)): 100 % of control

Compound: O=c1c(O)c(-c2ccc(O)c(O)c2)oc2cc(O)cc(O)c12
- T/C (dose: 25.0 mg/kg/injection, schedule: Q02DX009 (ip), vehicle: saline): 89 % of control
- T/C (dose: 50.0 mg/kg/injection, schedule: Q02DX009 (ip), vehicle: saline): 88 % of control
- T/C (dose: 100.0 mg/kg/injection, schedule: Q02DX009 (ip), vehicle: saline): 93 % of control
- T/C (dose: 200.0 mg/kg/injection, schedule: Q02DX009 (ip), vehicle: saline with Tween-80): 86 % of control
- T/C (dose: 200.0 mg/kg/injection, schedule: Q02DX009 (ip), vehicle: saline): 87 % of control

Compound: O=C1OC2CC1(O)CC(O)C2O (stereo unspecified)
- T/C (dose: 6.25 mg/kg/injection, schedule: Q01DX009 (ip), vehicle: saline): 111 % of control
- T/C (dose: 12.5 mg/kg/injection, schedule: Q01DX009 (ip), vehicle: saline): 92 % of control
- T/C (dose: 25.0 mg/kg/injection, schedule: Q01DX009 (ip), vehicle: saline): 101 % of control
- T/C (dose: 50.0 mg/kg/injection, schedule: Q04DX003 (ip), vehicle: saline with Tween-80): 103 % of control
- T/C (dose: 100.0 mg/kg/injection, schedule: Q04DX003 (ip), vehicle: saline with Tween-80): 97 % of control
- T/C (dose: 200.0 mg/kg/injection, schedule: Q04DX003 (ip), vehicle: saline with Tween-80): 94 % of control

Compound: CC1(C)N=C(N)N=C(N)N1c1cccc(CCCCc2cccc(S(=O)(=O)F)c2)c1
- T/C (dose: 6.25 mg/kg/injection, schedule: Q01DX009 (ip), vehicle: saline with Tween-80): 115 % of control
- T/C (dose: 12.5 mg/kg/injection, schedule: Q01DX009 (ip), vehicle: saline with Tween-80): 96 % of control
- T/C (dose: 25.0 mg/kg/injection, schedule: Q01DX009 (ip), vehicle: saline with Tween-80): 87 % of control

Compound: C=Cc1c(C)c2cc3[nH]c(cc4nc(cc5nc(cc1[nH]2)C(C)=C5CCC(=O)O)C(CCC(=O)O)=C4C)c(C)c3C=C
- T/C [5]: 97 % of control
- T/C [6]: 104 % of control
- T/C [7]: 104 % of control
- T/C [10]: 101 % of control

Compound: [Cl][Pt+2][Cl].[NH-]C1CCC1.[NH-]C1CCC1
- T/C (dose: 0.5 mg/kg/injection, schedule: Q01DX009 (ip), vehicle: saline with Tween-80): 108 % of control
- T/C [1]: 117 % of control
- T/C [2]: 115 % of control
- T/C (dose: 5.0 mg/kg/injection, schedule: Q01DX009 (ip), vehicle: Klucel (hydroxypropylcellulose) (HPC)): 112 % of control

Compound: CC(C)N(C(=O)COc1ccc(Cl)cc1)c1ccccc1
- T/C [10]: 86 % of control
- T/C [8]: 106 % of control
- T/C [9]: 86 % of control
